{
  "source": "PubChem BioAssay AID2060605",
  "about": "(Molecular Pharmacology Branch, DTP, NCI, 2025);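 also: spheroids exposed to compounds for one week before readout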;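 as to viability, T/C: 100% = DMSO vehicle control wells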",
  "system": "947758-054-R-J2-PDC spheroid growth, percent test/control",
  "assay": "Anticancer human tumor 947758-054-R-J2-PDC patient-derived colon adenocarcinoma cell line growth inhibition [CLK]",
  "conditions": "spheroids with HUVEC and MSC; for IC50: curve of first compound; for viability, T/C: stronger effect = lower value",
  "outline": "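Patient-derived tumor cells grown as complex spheroids with HUVEC endothelial cells and mesenchymal stem cells, treated with drug combinations. Concentrations descend in half-log steps from near clinical Cmax, or from 10 microM if Cmax unknown.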",
  "key": {"[1]": {"conditions": "second compound 0.0316 µM, first compound 0.0316 µM"}, "[2]": {"conditions": "second compound 0.0316 µM, first compound 0.1 µM"}, "[3]": {"conditions": "second compound 0.0316 µM, first compound 0.316 µM"}, "[4]": {"conditions": "second compound 0.0316 µM, first compound 1 µM"}, "[5]": {"conditions": "second compound 0.0316 µM, first compound 3.16 µM"}, "[6]": {"conditions": "second compound 0.0316 µM, first compound 10 µM"}, "[7]": {"conditions": "second compound 0.1 µM, first compound 0.0316 µM"}, "[8]": {"conditions": "second compound 0.1 µM, first compound 0.1 µM"}, "[9]": {"conditions": "second compound 0.1 µM, first compound 0.316 µM"}, "[10]": {"conditions": "second compound 0.1 µM, first compound 1 µM"}, "[11]": {"conditions": "second compound 0.1 µM, first compound 3.16 µM"}, "[12]": {"conditions": "second compound 0.1 µM, first compound 10 µM"}, "[13]": {"conditions": "second compound 0.316 µM, first compound 0.0316 µM"}, "[14]": {"conditions": "second compound 0.316 µM, first compound 0.1 µM"}, "[15]": {"conditions": "second compound 0.316 µM, first compound 0.316 µM"}, "[16]": {"conditions": "second compound 0.316 µM, first compound 1 µM"}, "[17]": {"conditions": "second compound 0.316 µM, first compound 3.16 µM"}, "[18]": {"conditions": "second compound 0.316 µM, first compound 10 µM"}, "[19]": {"conditions": "second compound 1 µM, first compound 0.0316 µM"}, "[20]": {"conditions": "second compound 1 µM, first compound 0.1 µM"}, "[21]": {"conditions": "second compound 1 µM, first compound 0.316 µM"}, "[22]": {"conditions": "second compound 1 µM, first compound 1 µM"}, "[23]": {"conditions": "second compound 1 µM, first compound 3.16 µM"}, "[24]": {"conditions": "second compound 1 µM, first compound 10 µM"}, "[25]": {"conditions": "second compound 3.16 µM, first compound 0.0316 µM"}, "[26]": {"conditions": "second compound 3.16 µM, first compound 0.1 µM"}, "[27]": {"conditions": "second compound 3.16 µM, first compound 0.316 µM"}, "[28]": {"conditions": "second compound 3.16 µM, first compound 1 µM"}, "[29]": {"conditions": "second compound 3.16 µM, first compound 3.16 µM"}, "[30]": {"conditions": "second compound 3.16 µM, first compound 10 µM"}, "[31]": {"conditions": "second compound 10 µM, first compound 0.0316 µM"}, "[32]": {"conditions": "second compound 10 µM, first compound 0.1 µM"}, "[33]": {"conditions": "second compound 10 µM, first compound 0.316 µM"}, "[34]": {"conditions": "second compound 10 µM, first compound 1 µM"}, "[35]": {"conditions": "second compound 10 µM, first compound 3.16 µM"}, "[36]": {"conditions": "second compound 10 µM, first compound 10 µM"}},
  "data": [
    {"smiles": "Nc1ccccc1NC(=O)c1ccc(CNC(=O)OCc2cccnc2)cc1", "note": "+ CN1CCN(c2cc(C(=O)Nc3cc4cc(-c5cnn(C)c5)ccc4cn3)ccn2)CC1", "values": [
      {"measurement": "IC50", "setting": "second compound 0.0316 µM", "value": 4620, "unit": "nM"},
      {"measurement": "IC50", "setting": "second compound 0.1 µM", "value": 2700, "unit": "nM"},
      {"measurement": "IC50", "setting": "second compound 0.316 µM", "value": "< 31.6", "unit": "nM"},
      {"measurement": "IC50", "setting": "second compound 1 µM", "value": "< 31.6", "unit": "nM"},
      {"measurement": "IC50", "setting": "second compound 3.16 µM", "value": "< 31.6", "unit": "nM"},
      {"measurement": "IC50", "setting": "second compound 10 µM", "value": "< 31.6", "unit": "nM"},
      {"measurement": "viability, T/C", "setting": "[1]", "value": 133, "unit": "%"},
      {"measurement": "viability, T/C", "setting": "[2]", "value": 136, "unit": "%"},
      {"measurement": "viability, T/C", "setting": "[3]", "value": 153, "unit": "%"},
      {"measurement": "viability, T/C", "setting": "[4]", "value": 166, "unit": "%"},
      {"measurement": "viability, T/C", "setting": "[5]", "value": 70.3, "unit": "%"},
      {"measurement": "viability, T/C", "setting": "[6]", "value": 8.87, "unit": "%"},
      {"measurement": "viability, T/C", "setting": "[7]", "value": 188, "unit": "%"},
      {"measurement": "viability, T/C", "setting": "[8]", "value": 178, "unit": "%"},
      {"measurement": "viability, T/C", "setting": "[9]", "value": 190, "unit": "%"},
      {"measurement": "viability, T/C", "setting": "[10]", "value": 129, "unit": "%"},
      {"measurement": "viability, T/C", "setting": "[11]", "value": 39.4, "unit": "%"},
      {"measurement": "viability, T/C", "setting": "[12]", "value": 4.71, "unit": "%"},
      {"measurement": "viability, T/C", "setting": "[13]", "value": 2.88, "unit": "%"},
      {"measurement": "viability, T/C", "setting": "[14]", "value": 6, "unit": "%"},
      {"measurement": "viability, T/C", "setting": "[15]", "value": 2.2, "unit": "%"},
      {"measurement": "viability, T/C", "setting": "[16]", "value": 0.82, "unit": "%"},
      {"measurement": "viability, T/C", "setting": "[17]", "value": 1.3, "unit": "%"},
      {"measurement": "viability, T/C", "setting": "[18]", "value": 0.07, "unit": "%"},
      {"measurement": "viability, T/C", "setting": "[19]", "value": 0.15, "unit": "%"},
      {"measurement": "viability, T/C", "setting": "[20]", "value": 0.18, "unit": "%"},
      {"measurement": "viability, T/C", "setting": "[21]", "value": 0.2, "unit": "%"},
      {"measurement": "viability, T/C", "setting": "[22]", "value": 0.12, "unit": "%"},
      {"measurement": "viability, T/C", "setting": "[23]", "value": 0.57, "unit": "%"},
      {"measurement": "viability, T/C", "setting": "[24]", "value": 2.05, "unit": "%"},
      {"measurement": "viability, T/C", "setting": "[25]", "value": 0.21, "unit": "%"},
      {"measurement": "viability, T/C", "setting": "[26]", "value": 0.63, "unit": "%"},
      {"measurement": "viability, T/C", "setting": "[27]", "value": 0.29, "unit": "%"},
      {"measurement": "viability, T/C", "setting": "[28]", "value": 0.28, "unit": "%"},
      {"measurement": "viability, T/C", "setting": "[29]", "value": 0.32, "unit": "%"},
      {"measurement": "viability, T/C", "setting": "[30]", "value": 2.87, "unit": "%"},
      {"measurement": "viability, T/C", "setting": "[31]", "value": 0.31, "unit": "%"},
      {"measurement": "viability, T/C", "setting": "[32]", "value": 0.32, "unit": "%"},
      {"measurement": "viability, T/C", "setting": "[33]", "value": 1.85, "unit": "%"},
      {"measurement": "viability, T/C", "setting": "[34]", "value": 0.43, "unit": "%"},
      {"measurement": "viability, T/C", "setting": "[35]", "value": 0.45, "unit": "%"},
      {"measurement": "viability, T/C", "setting": "[36]", "value": 2.2, "unit": "%"}
    ]},
    {"smiles": "CC(=O)O[C@H]1C(=O)[C@@]2(C)[C@H]([C@H](OC(=O)c3ccccc3)[C@]3(O)C[C@H](OC(=O)[C@H](O)[C@@H](NC(=O)c4ccccc4)c4ccccc4)C(C)=C1C3(C)C)[C@]1(OC(C)=O)CO[C@@H]1C[C@@H]2O", "note": "+ CN1CCN(c2cc(C(=O)Nc3cc4cc(-c5cnn(C)c5)ccc4cn3)ccn2)CC1", "values": [
      {"measurement": "IC50", "setting": "second compound 0.0316 µM", "value": "< 31.6", "unit": "nM"},
      {"measurement": "IC50", "setting": "second compound 0.1 µM", "value": "< 31.6", "unit": "nM"},
      {"measurement": "IC50", "setting": "second compound 0.316 µM", "value": "< 31.6", "unit": "nM"},
      {"measurement": "IC50", "setting": "second compound 1 µM", "value": "< 31.6", "unit": "nM"},
      {"measurement": "IC50", "setting": "second compound 3.16 µM", "value": "< 31.6", "unit": "nM"},
      {"measurement": "IC50", "setting": "second compound 10 µM", "value": "< 31.6", "unit": "nM"},
      {"measurement": "viability, T/C", "setting": "[1]", "value": 7.4, "unit": "%"},
      {"measurement": "viability, T/C", "setting": "[2]", "value": 6.03, "unit": "%"},
      {"measurement": "viability, T/C", "setting": "[3]", "value": 4.94, "unit": "%"},
      {"measurement": "viability, T/C", "setting": "[4]", "value": 5.77, "unit": "%"},
      {"measurement": "viability, T/C", "setting": "[5]", "value": 6.99, "unit": "%"},
      {"measurement": "viability, T/C", "setting": "[6]", "value": 11.8, "unit": "%"},
      {"measurement": "viability, T/C", "setting": "[7]", "value": 5.33, "unit": "%"},
      {"measurement": "viability, T/C", "setting": "[8]", "value": 5.11, "unit": "%"},
      {"measurement": "viability, T/C", "setting": "[9]", "value": 4.6, "unit": "%"},
      {"measurement": "viability, T/C", "setting": "[10]", "value": 4.61, "unit": "%"},
      {"measurement": "viability, T/C", "setting": "[11]", "value": 5.41, "unit": "%"},
      {"measurement": "viability, T/C", "setting": "[12]", "value": 8.84, "unit": "%"},
      {"measurement": "viability, T/C", "setting": "[13]", "value": 1.4, "unit": "%"},
      {"measurement": "viability, T/C", "setting": "[14]", "value": 1.86, "unit": "%"},
      {"measurement": "viability, T/C", "setting": "[15]", "value": 2.27, "unit": "%"},
      {"measurement": "viability, T/C", "setting": "[16]", "value": 1.92, "unit": "%"},
      {"measurement": "viability, T/C", "setting": "[17]", "value": 2.04, "unit": "%"},
      {"measurement": "viability, T/C", "setting": "[18]", "value": 2.67, "unit": "%"},
      {"measurement": "viability, T/C", "setting": "[19]", "value": 0.1, "unit": "%"},
      {"measurement": "viability, T/C", "setting": "[20]", "value": 0.12, "unit": "%"},
      {"measurement": "viability, T/C", "setting": "[21]", "value": 0.3, "unit": "%"},
      {"measurement": "viability, T/C", "setting": "[22]", "value": 0.08, "unit": "%"},
      {"measurement": "viability, T/C", "setting": "[23]", "value": 0.09, "unit": "%"},
      {"measurement": "viability, T/C", "setting": "[24]", "value": 0.09, "unit": "%"},
      {"measurement": "viability, T/C", "setting": "[25]", "value": 0.16, "unit": "%"},
      {"measurement": "viability, T/C", "setting": "[26]", "value": 0.22, "unit": "%"},
      {"measurement": "viability, T/C", "setting": "[27]", "value": 0.21, "unit": "%"},
      {"measurement": "viability, T/C", "setting": "[28]", "value": 0.14, "unit": "%"},
      {"measurement": "viability, T/C", "setting": "[29]", "value": 1.02, "unit": "%"},
      {"measurement": "viability, T/C", "setting": "[30]", "value": 0.58, "unit": "%"},
      {"measurement": "viability, T/C", "setting": "[31]", "value": 1.41, "unit": "%"},
      {"measurement": "viability, T/C", "setting": "[32]", "value": 0.29, "unit": "%"},
      {"measurement": "viability, T/C", "setting": "[33]", "value": 0.23, "unit": "%"},
      {"measurement": "viability, T/C", "setting": "[34]", "value": 0.25, "unit": "%"},
      {"measurement": "viability, T/C", "setting": "[35]", "value": 0.27, "unit": "%"},
      {"measurement": "viability, T/C", "setting": "[36]", "value": 0.7, "unit": "%"}
    ]}
  ]
}
